From patent US20250325500A1, “USE OF 5-METHOXY-2-AMINOINDAN ("MEAI") IN METHODS FOR TREATING COCAINE ADDICTION” (Clearmind Medicine Inc., priority 2022, published 2025)

Columns and labels:
Assay type in all cases: in vivo, rat
[1] = test system: cocaine preference in rats; experiment: CPP test, MEAI as a treatment for cocaine preference in rats; details: rats conditioned with cocaine 15 mg/kg
Description: (§1) Two groups were tested: One group received MEAI (four different doses), while the second group received cocaine in each conditioning day. Additionally, some rats that received cocaine were treated with MEAI on the test day to determine if MEAI has a treatment-like effect.
In the CPP assay, the rats learned to associate a reward with an environmental cue. Two groups of rats were put through a three-day baseline period during which each rat was allowed to freely move during 20 minutes from a striped to a smooth compartment in a closed arena. Time measurements were taken to determine which compartment the rat spent more time in (i.e., preferred). Baseline data was determined as an average duration of time spent in each compartment. After the baseline period, a training period of 5 days was conducted in which rats were injected with saline (I.P.) in the morning and placed in the preferred compartment for 20 minutes. […] The duration time spent in each compartment was calculated as the difference between the baseline time and the testing time (seconds) as previously described. […]
The two groups were divided as values below 100 seconds in a non-preferred compartment (MEAI A) and above 100 seconds (MEAI B). […] The behavioral data were analyzed with Ordinary one-way ANOVA. Data was expressed as mean±SEM and a probability value of […] was considered significant. n=5-12 rats per group. […]

rats [2] = experiment: Side effects observed in rats dosed with MEAI during CPP conditioning; details: anxiety, diarrhea, secretion of vaginal plug
Description: (§2) In the CPP assay, the rats learned to associate a reward with an environmental cue. Two groups of rats were put through a three-day baseline period during which each rat was allowed to freely move during 20 minutes from a striped to a smooth compartment in a closed arena. Time measurements were taken to determine which compartment the rat spent more time in (i.e., preferred). Baseline data was determined as an average duration of time spent in each compartment. After the baseline period, a training period of 5 days was conducted in which rats were injected with saline (I.P.) in the morning and placed in the preferred compartment for 20 minutes. Four hours after the saline injection, cocaine (15 mg/kg I.P.) or MEAI (4 doses; 20, 10, 5 and 2.5 mg/kg I.P.) was injected and the rat was placed in the less preferred compartment for 20 minutes. On the 6th day, a CPP test was conducted (identical to the baseline period) to determine if MEAI imparts a reward-like effect similar to cocaine. The duration time spent in each compartment was calculated as the difference between the baseline time and the testing time (seconds) as previously described.
We started testing with 20 mg/kg of MEAI. […] Due to these side effects, we decided to test lower doses of MEAI as opposed to higher doses. Accordingly, the following dose tested was 10 mg/kg of MEAI. 51% of the rats receiving this dose had side effects, including anxiety, aggressiveness, piloerection, tremors low body posture, diarrhea, and secretion of “vaginal plug,” with a trend towards improved symptoms, although not statistically significant, compared to the 20 mg/kg dose. […] Overall, the mean that was most negative was for the dose 5 mg/kg, and therefore we decided to test the efficacy of this dose as a treatment for cocaine preference in rats.

rats [3] = experiment: Conditioned Place Preference (CPP) model, reward-like effect of MEAI; details: 5 conditioning days, test on 6th day, difference from baseline
Description: as §1, §2
In the first part of this study, we examined whether administration of MEAI in four different doses […] reward.

With COc1ccc2c(c1)CC(N)C2 (stereo not shown) [MEAI, 5-methoxy-2-aminoindan] the “decrease of reward in cocaine-conditioned rats, 5 mg/kg versus 10 mg/kg” value ([1]; MEAI 5 mg/kg i.p. compared with 10 mg/kg i.p. on test day (FIG. 2)) was “better results in decreasing reward”, the “compartment preference of cocaine-conditioned rats after treatment” value ([1]; MEAI 5 mg/kg i.p. on test day, 10 min before test) was “mixed” and the “rats presenting side effects” value (rats [2]; MEAI 2.5 mg/kg I.P.) was 21.4%. The “rats presenting side effects” value (rats [2]; MEAI 5 mg/kg I.P.) was 20.2%, the “rats presenting side effects” value (rats [2]; MEAI 10 mg/kg I.P., aggressiveness, piloerection, tremors, low body posture) was 51% and the “rats presenting side effects” value (rats [2]; MEAI 20 mg/kg I.P., aggressiveness, piloerection, tremors, low body posture) was 65.7%. For the same molecule, the “duration of time spent in a non-preferred place (reward)” value (rats [3]; MEAI 2.5 mg/kg I.P.) was “negative”, the “duration of time spent in a non-preferred place (reward)” value (rats [3]; MEAI 5 mg/kg I.P.) was “negative” and the “duration of time spent in a non-preferred place (reward)” value (rats [3]; MEAI 10 mg/kg I.P.) was “rewarding effect”. For the same molecule, the “duration of time spent in a non-preferred place (reward)” value (rats [3]; MEAI 20 mg/kg I.P.) was “low reward”.
